What all share (assay): growth of human tumour cells (NCI), 48 h
Assay [1] has as its system A549 NSCLC.
The test system of assay [2] is HOP-62 NSCLC.
Assay [3] relates to KM12 colon.
In assay [4] the test system is M14 melanoma.
Assay [5] deals with MALME-3M melanoma.
Assay [6] relates to OVCAR-3 ovarian.
In assay [7] the test system is OVCAR-8 ovarian.
The test system of assay [8] is SNB-75 CNS.
In assay [9] the test system is SR leukemia.
Assay [10] deals with TK-10 renal.

SMILES strings stand for the structures.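 Tested at 5 concentrations; 48 h exposure; 96-well plates; endpoints linearly interpolated, else capped at highest concentration. Here, GI50 denotes the concentration required for 50% inhibition of growth. TGI: concentration producing complete growth inhibition.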

Consider `CNCCOC(=O)/C=C1\CC[C@H]2[C@@H]([C@@H](O)C(=O)[C@@H]3[C@]2(C)CC[C@H](O)[C@]3(C)C(=O)OC)[C@H]1C`, for which the GI50 is 0.165 µM in assay [1]; 0.241 µM in [2]; 0.564 µM in assay [3]; 1.08 µM in assay [4]; 0.324 µM in [5]; 0.228 µM in [6]. For the same molecule, the GI50 in [7] was 0.329 µM; in [8], 0.396 µM; in [9], 0.244 µM; in [10] it was 0.262 µM. The TGI was 0.314 µM in assay [1]; 0.595 µM in assay [2]; 2.12 µM in [3]; 2.46 µM in assay [4]; 1.42 µM in [5]; 0.49 µM in assay [6]. Moreover, the TGI stood at 1.11 µM in assay [7], 1.74 µM in assay [8], 0.626 µM in [9] and 0.76 µM in assay [10].
With `NNC(=O)CNc1cccc(Br)c1`, the TGI in [1], in [2], in assay [3], in [4], in assay [5] and in [6] was > 100 µM in each case. In addition, the TGI in [7], in assay [8], in assay [9] and in [10] was > 100 µM each time.
`N#C/C(=C\c1ccc2ccccc2c1)C(=O)c1ccccc1`: the TGI in assay [1] was > 100 µM; in assay [2], 51.4 µM; in assay [3] it was > 100 µM; in assay [4], > 88.4 µM; in assay [5], > 100 µM; in assay [6], > 94.4 µM. Also, the TGI in assay [7] is > 46.4 µM; in assay [8], > 100 µM; in assay [9] it was > 100 µM; in [10], > 100 µM.
With `Cc1ccccc1C(=O)c1cc(O)ccc1O`, the TGI in assay [1], in assay [2], in assay [3], in [4], in assay [5] and in assay [6] was > 100 µM each time. Moreover, the TGI in [7], in assay [8], in assay [9] and in assay [10] was > 100 µM throughout.
`C/C(CC(=O)Nc1ccc(C)c(C)c1)=N\N(c1ccccc1)c1ccccc1`: the TGI in assay [1], in assay [2], in assay [3], in assay [4], in assay [5] and in [6] was > 100 µM in each case. Further, the TGI in [7] is > 100 µM; in [8] it was > 100 µM; in assay [9] it was 51.2 µM; in [10] it was > 100 µM.
In the case of `Cc1nc(N)sc1N=Nc1ccccc1Br`, the TGI in assay [1] was > 100 µM; in [2] it was 78.4 µM; in assay [3], 51.1 µM; in assay [4] it was 67.6 µM; in assay [5], 61 µM; in assay [6] it was > 79.9 µM. Also, the TGI in [7] was > 84.8 µM; in assay [8], 37.5 µM; in assay [9], > 100 µM; in assay [10] it was 70.4 µM.
On to `Cc1c(N(C)C)ccc2c(=O)c3cccc(CC(=O)O)c3oc12`, for which the TGI in assay [1], in assay [2], in [3], in assay [4], in assay [5] and in assay [6] was > 100 µM each time. The TGI in [7], in assay [8], in [9] and in [10] was > 100 µM throughout.
As for `C#CC1/C(=C\C(=O)OC)CCCC1O` (stereo not given), the TGI in assay [1], in [2], in assay [3], in assay [4], in assay [5] and in assay [6] was > 100 µM throughout. Moreover, the TGI in assay [7], in assay [8], in assay [9] and in [10] was > 100 µM in each case.
For the molecule `CN(C)CC[C@H](CSc1ccccc1)Nc1ccc(S(=O)(=O)NC(=O)c2ccc(N3CCN(Cc4ccccc4-c4ccc(Cl)cc4)CC3)cc2)cc1[N+](=O)[O-]`, the GI50 in assay [1] is 3.73 µM; in assay [2], 9.66 µM; in assay [3], 3.6 µM; in [4], 4.17 µM; in assay [5], 3.11 µM; in [6], 3.92 µM. Also, the GI50 is 6.12 µM in assay [7], 6.09 µM in assay [8], 3.85 µM in assay [9] and 2.44 µM in [10]. Besides, the TGI is > 100 µM in assay [1]; > 60.2 µM in [2]; 23.6 µM in assay [3]; 29.8 µM in [4]; 36.3 µM in assay [5]; 23.6 µM in assay [6]. For the same molecule, the TGI is > 100 µM in assay [7], > 100 µM in [8], 40.2 µM in assay [9] and 5.37 µM in assay [10].
For the molecule `O=C(Cc1ccc(F)c(Cl)c1)Nc1cc(C2(C(F)(F)F)CC2)nn1CC1CCCCC1`, the GI50 is 4.6 µM in assay [1]; 3.96 µM in assay [2]; 3.74 µM in assay [3]; 4.3 µM in assay [4]; 2.7 µM in assay [5]; 3.81 µM in assay [6]. Besides, the GI50 in assay [7] is 4.96 µM; in assay [8] it was 0.808 µM; in [9] it was 3.73 µM; in assay [10], 4.78 µM. The TGI in [1] was > 15 µM; in [2], > 15 µM; in assay [3], 12.3 µM; in assay [4] it was > 15 µM; in assay [5] it was 8.06 µM; in [6], > 15 µM. In addition, the TGI in assay [7] was > 15 µM; in assay [8], 5.99 µM; in [9] it was 11.4 µM; in [10], > 15 µM.
Turning to `NC(N)=NCCCC(=O)O`, the TGI in assay [1], in assay [2], in [3], in assay [4], in [5] and in [6] was > 100 µM each time. The TGI in assay [7], in assay [8], in [9] and in [10] was > 100 µM in each case.

These data come from PubChem BioAssay (NCI).
